Source: BindingDB's records for doi:10.1016/j.bmc.2012.08.006 (Chungnam National University, 2012)

Test: Inhibition of IL-5 in mouse Y16 cells after 48 hrs by WST1 assay

CCCN(CCO)Cc1coc2cccc(OCC3CCCCC3)c2c1=O
IC50: 15.4 µM

O=c1c(CN(CCO)Cc2ccncc2)coc2cccc(OCC3CCCCC3)c12
IC50: 14.2 µM

CC(C)N(CCO)Cc1coc2cccc(OCC3CCCCC3)c2c1=O
IC50: 10.2 µM

O=c1c(CN(CCO)C2CCCCC2)coc2cccc(OCC3CCCCC3)c12
IC50: 9 µM

O=c1c(CN(CCO)Cc2ccc(Cl)cc2)coc2cccc(OCC3CCCCC3)c12
IC50: 10.3 µM

CCCCN(CCO)Cc1coc2cccc(OCC3CCCCC3)c2c1=O
IC50: 9.2 µM

O=c1c(CN(CCO)c2ccccc2)coc2cccc(OCC3CCCCC3)c12
IC50: 14.3 µM

CCN(CCO)Cc1coc2cccc(OCC3CCCCC3)c2c1=O
IC50: 19.5 µM

O=c1c(CN(CCO)CC2CCCCC2)coc2cccc(OCC3CCCCC3)c12
IC50: 12.4 µM

COc1ccc(CN(CCO)Cc2coc3cccc(OCC4CCCCC4)c3c2=O)cc1
IC50: 9 µM

Cc1ccc(CN(CCO)Cc2coc3cccc(OCC4CCCCC4)c3c2=O)cc1
IC50: 9.4 µM

CN(CCO)Cc1coc2cccc(OCC3CCCCC3)c2c1=O
IC50: 30.3 µM

O=c1c(CN(CCO)Cc2ccc(O)cc2)coc2cccc(OCC3CCCCC3)c12
IC50: 9.1 µM

O=c1c(CN(CCO)Cc2ccccc2)coc2cccc(OCC3CCCCC3)c12
IC50: 16.1 µM
